Experimental findings from paper PMC4398458, “Reversible Linkage of Two Distinct Small Molecule Inhibitors of Myc Generates a Dimeric Inhibitor with Improved Potency That Is Active in Myc Over-Expressing Cancer Cell Lines” (PLoS ONE, 2015) are described below.

A value given as a limit tells only on which side of the number the result lay.

One data set concerns the target T1, Myc:Max interaction (Homo sapiens, UniProt P01106).
T1 construct: purchased Origene (Myc); Sino Biologicals (Max)
Kind of data set: Cell-free Myc:Max ELISA. Type of data set: biochemical. The note with it: average with standard deviation; combinations as equimolar (1:1) titrations, concentration of each monomer; read-out: ELISA (IC50), inhibition of cell-free MYC-MAX heterodimer formation. As for the experimental part: High binding 96-well plates were coated with GST-conjugated full-length Max protein (Sino Biologicals) at 1ng/μL in 100μl of PBS overnight at 4°C. The plate was washed 4x 200 μl/well with PBS and blocked in 200 μl/well of 5% nonfat dry milk in PBS for 2 hours at room temperature. […] Compounds were serially diluted in 100% DMSO and then sequentially diluted […] into the Myc solution before incubation for one hour at room temperature. For internal consistency, final DMSO concentrations were kept at 2%. The blocked plate was washed 4x 200μl/well with Buffer A, before addition of 100 μl of the Myc compound mixture. Plates were incubated for four hours at RT, and washed 4x 200 μl Buffer A/well. Anti-Myc antibody (Cell Signaling) was diluted 1:1000 in 5% nonfat dry milk in Buffer A. 100 μL/well diluted primary antibody was added to each well and incubated for one hour at room temperature. Plates were washed 4x 200 μl/well Buffer A. HRP-conjugated goat anti-rabbit antibody (GE Healthcare) was diluted 1:5000 in 5% nonfat dry milk in Buffer A. 100 μL/well diluted secondary antibody was added to each well and incubated for thirty minutes at room temperature. The plates were washed 4x 200 μL/well Buffer A. 50 μL/well of FEMTO chemiluminescent reagent (Thermo Scientific) was added, and luminescence was immediately read on a Victor X5 plate reader (PerkinElmer) with a 0.1 sec integration time. IC50s were generated through non-linear fitting of data with prism (GraphPad).
We next asked whether the binding of these dimers to Myc could disrupt the interaction with its transcriptional partner Max. We developed an ELISA using purified Myc and Max protein that allowed us to measure effects on Myc:Max binding. The ELISA plate was initially coated with Max protein and the compounds pre-incubated with Myc protein prior to addition to the Max-coated plate. After extensive washing, Myc binding to Max was detected using an anti-Myc antibody. […] We observe similar effects for the dimeric inhibitor E08+N11 (Table 1).
For orientation: In an ELISA, binding on a coated surface is turned into a signal by an enzyme label.

For data set [1], the target named is T2, His-tagged bHLH-LZ domain of human Myc protein (aa353-439) (Homo sapiens, UniProt P01106).
T2 construct: human Myc protein (aa353-439, Cayman Chemicals, Ann Arbor, MI); purchased Cayman Chemicals
T2 sequence (P01106 368-454): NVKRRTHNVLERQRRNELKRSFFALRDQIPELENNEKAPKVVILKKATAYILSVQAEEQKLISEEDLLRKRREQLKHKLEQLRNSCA
Nature of the data set: Surface Plasmon Resonance binding to immobilized Myc. The note with it: average KD, equilibrium fit, 25°C; combinations as equimolar titrations; read-out: SPR (Kd), direct MYC binding. The procedure: All SPR experiments were performed on a Bio-Rad XPR36 instrument at 25°C. His-tagged bHLH-LZ domain of human Myc protein (aa353-439, Cayman Chemicals, Ann Arbor, MI) was immobilized in running buffer (20 mM Na-phosphate, pH 7.5, 300 mM NaCl, 4 mM KCl,. 05% Tween20) in the absence of DMSO at 25μL/min for 400 seconds on Bio-Rad HTE (Ni-NTA) chips with a resulting RU value of about 4500 after immobilization. Compound binding was analyzed in the same running buffer with a final DMSO concentration of 2%. Compounds were injected at 30μL/min for 180 seconds with a dissociation time of 300 seconds. Injections consisted of 5 concentrations of compounds plus a blank channel for reference that flowed over all immobilized ligands in a matrix format. Regeneration steps were not required due to the rapid dissociation of compounds. Equilibrium fits were performed with the ProteOn software after inter-spot and reference channel subtractions.
We next analyzed whether these dimeric inhibitors could directly bind to Myc. To do this we developed a Surface Plasma Resonance (SPR) assay to compare the binding affinities of the monomers to that of the dimeric inhibitors. We immobilized the bHLHZip domain of Myc to the surface of a Ni-NTA chip via a His-tag and measured binding affinities for the monomers or dimers. […] We observed similar data with the E08+N11 dimer.

The next data set has as its system Daudi cells. Kind of data set: Cell proliferation / viability assay and Bliss synergy analysis. The class given is cell-based. The note with it: concentrations up to 30 μM, 3 days. The procedure: K562 (CCL-243), Daudi (CCL-213), Raji (CCL-86) and MV4-11(CCL-9591) cells were purchased directly from American Type Culture Collection (Manassas, VA) and routinely cultured under recommended conditions. Growth and proliferation was determined by use of Cell Titer 96 Aqueous One Solution (Promega, Madison, WI). All cells were plated at 10,000 cells per well in growth media in a clear 96 well plate. After 3 days of compound treatment reagent was added, and absorbance at 490 nm was read after incubation for 4 hours at 37°C. A control plate of compound diluted in media at the same concentrations was treated in a similar way and these values subtracted from the cell plate data to control for any compound interference in the assay. Synergy was determined using the Bliss model of independence.
We screened pairwise combinations of monomers from our libraries in a cell proliferation assay. Increasing concentrations of each compound were dosed in an 8x6 matrix format and their effects on cell proliferation monitored. […] The majority of the combinations were additive in nature, a result consistent with the combination of the two parent ligands C01 and C02 (S1 Fig.). We identified a number of combinations that were synergistic, and representative graphs showing dose dependent inhibition of proliferation with 2 different combinations (E07+N12 and E08+N11) are shown (Fig. 2 A and B). There was no activity of the individual compounds E07, E08, N12, or N11 in the proliferation assay at concentrations up to 30 μM.
Our cell-free experiments had clearly shown that the ability for self-assembly of the dimer was important in driving the improved inhibitory effect versus the Myc protein. To test this in a cellular context we compared the effect on cell viability of the E08+N11 dimer versus its non-dimerizable control combination E08+C11. […] Similar effects on cell viability and Myc protein levels were also observed for the dimer E07+N12 but not its non-dimerizable control E07+C12 (S5 Fig.).

Data set [2] deals with T3, Myc:Max heterodimers in complex with E-box DNA (Homo sapiens, UniProt P01106).
T3 construct: c-Myc residues Asn352 to Ala439; 6xHis (N); TEV cleavage site (N); purchased Cayman Chemical (Myc, custom expression); Sino Biologicals (Max) #12885-H20B (Max); host or cells: E. coli BL21StarDE3 (Myc)
T3 sequence (P01106 with tags, fused parts or gaps): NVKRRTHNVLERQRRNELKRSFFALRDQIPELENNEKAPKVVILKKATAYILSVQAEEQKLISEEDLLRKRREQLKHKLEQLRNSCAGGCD
Nature of the data set: Electrophoretic mobility shift assay (EMSA), Myc:Max heterodimer binding to DNA. The class given is biochemical. The note with it: cell-free EMSA, E-box oligonucleotide. The procedure: Human c-Myc (NP_002458.2) containing the bHLH-LZ domain was cloned into a modified pET21a vector and then transformed into the BL21StarDE3 expression system, expressed, and purified at Cayman Chemical. The construct consists of an N-terminal 6xHis tag with a TEV cleavage site, c-Myc residues Asn352 to Ala439, and a GGCD C-terminal extension (molecular weight 12.9 kDa). Compounds were added to 200 ng c-Myc in reaction buffer (100 mM KCL, 1 mM DTT, 1 mM EDTA, 50 mM Tris pH7.4, 5mM MgCl2, 0.002% NP40) and incubated for 60 minutes at room temperature. […] Finally, annealed double-stranded E-box containing DNA oligonucleotide with sequence 5’-[…]-3’ was added to a final concentration of 100 nM for twenty minutes incubation at room temperature. The final concentration of DMSO was kept constant at 2%. The protein-DNA complexes (final volume 10 μl) were resolved on NativePAGE Novex 4–16% Bis-Tris Protein Gels (Life technologies, #BN1002BOX) at 4°C with pre-chilled TBE (89 mM Tris-borate, 1 mM EDTA) at 125V for 90 minutes. SYBR Green EMSA Nucleotide Acid gel stain (Molecular Probes, #E33075) was used to stain dsDNA and DNA-protein complexes. Images were captured with an Alpha Innotech FluorChem Q imager installed with AlphaView software.
The formation of the Myc:Max heterodimer is required for its ability to bind to DNA sequences and trigger transcriptional activation of Myc-dependent genes. […]

The target of data set [3] is T4, Max:Max homodimers in complex with E-box DNA (Homo sapiens, UniProt P61244).
T4 construct: His-tagged and GST-tagged full-length human Max protein; purchased Sino Biologicals #12885-H20B
Nature of the data set: Electrophoretic mobility shift assay (EMSA), Max:Max homodimer binding to DNA. Type of data set: biochemical. The settings on record: cell-free EMSA, E-box oligonucleotide.

Another data set concerns the target Max (human, UniProt P61244 1-160). Nature of the data set: EMSA; Max:Max homodimer, no Myc; EMSA: 100 mM KCl, 1 mM DTT, 1 mM EDTA, 50 mM Tris pH 7.4, 5 mM MgCl2, 0.002% NP40, 2% DMSO, room temperature; 200 ng Myc, 350 ng Max, 100 nM DNA, 10 ul; gel run in TBE at 4 C. The note with it: protein: commercial; tags: His and GST; chain copies: 2; label: none (SYBR Green stain); (only one strand given). (In EMSA bound probe runs differently from free probe, usually more slowly.)

T1 sequence (P01106 whole entry): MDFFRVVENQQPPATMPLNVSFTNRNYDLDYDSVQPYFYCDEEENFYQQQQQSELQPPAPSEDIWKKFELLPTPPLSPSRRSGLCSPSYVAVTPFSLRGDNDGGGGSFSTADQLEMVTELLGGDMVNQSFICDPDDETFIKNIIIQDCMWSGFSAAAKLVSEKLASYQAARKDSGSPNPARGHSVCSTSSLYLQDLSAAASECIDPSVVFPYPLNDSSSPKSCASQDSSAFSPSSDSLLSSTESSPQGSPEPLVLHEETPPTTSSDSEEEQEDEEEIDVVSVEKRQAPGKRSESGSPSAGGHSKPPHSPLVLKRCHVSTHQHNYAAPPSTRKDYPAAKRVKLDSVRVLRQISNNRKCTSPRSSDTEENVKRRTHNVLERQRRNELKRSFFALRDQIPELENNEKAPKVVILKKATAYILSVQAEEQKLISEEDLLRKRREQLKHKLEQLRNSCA
Chain of Max (P61244 whole entry): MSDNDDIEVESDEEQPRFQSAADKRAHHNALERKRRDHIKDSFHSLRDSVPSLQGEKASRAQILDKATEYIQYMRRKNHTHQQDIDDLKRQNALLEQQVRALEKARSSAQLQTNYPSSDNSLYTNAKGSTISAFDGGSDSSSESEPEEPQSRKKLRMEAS

As for `O=C(NCc1cccc(B(O)O)c1)c1ccccc1Nc1ccc([N+](=O)[O-])c2nonc12` [E07], the IC50 (usually the concentration that inhibits the measured activity by half) on Myc:Max interaction came out at 24 ± 7.4 µM. For the same molecule, the equilibrium dissociation constant (Kd) (usually the equilibrium constant for the complex coming apart) in data set [1] was found to be 42 ± 10 µM. Further, the “activity of the individual compounds in the proliferation assay” value (from here on “activity of the individual compounds”) with Daudi cells is recorded as “no activity”. Further, the “effect on Myc:Max complex binding to DNA (gel mobility shift)” value in data set [2] was “Neither of the two monomers, E07 or N12, had any noticeable effect”. Further, the “effect on Max:Max complex binding to DNA (gel mobility shift)” value in data set [3] was “Neither of the two monomers, E07 or N12, had any noticeable effect”.
As to `CCc1ccc(/C=C2\SC(=O)N(CCNC(=O)[C@@H]3C[C@H]4C=C[C@H]3C4)C2=O)cc1` [C11], the IC50 at Myc:Max interaction was greater than 30 µM. Also, the dissociation constant Kd in data set [1] was greater than 50 µM.
On to `CCc1ccc(/C=C2\SC(=O)NC2=O)cc1` [C01, reference compound], for which the half-inhibitory concentration (IC50) on Myc:Max interaction was greater than 30 µM.
As for `CCc1ccc(/C=C2\SC(=O)N(CC[C@@H]3C[C@@H]4C=C[C@H]3C4)C2=O)cc1` [C12], on Myc:Max interaction, the IC50 was greater than 30 µM. The Kd in data set [1] is greater than 50 µM.
In the case of `NC(=O)c1ccccc1Nc1ccc([N+](=O)[O-])c2nonc12` [C02, 2-((7-Nitrobenzo[c][1,2,5]oxadiazol-4-yl)amino)benzamide, reference compound], the half-maximal inhibitory concentration (IC50) on Myc:Max interaction is greater than 30 µM.
For `O=C(NCc1ccc(B(O)O)cc1)c1ccccc1Nc1ccc([N+](=O)[O-])c2nonc12` [E08], the IC50 on Myc:Max interaction is greater than 30 µM. Also, in data set [1], the Kd came out at 47 ± 9 µM. Further, in the data set with Daudi cells, the “activity of the individual compounds” value is “no activity”.
Taken in the same sequence, the figures for `CCc1ccc(/C=C2\SC(=O)N(CCNC(=O)[C@@H]3C[C@@H]4C[C@H]3[C@@H](O)[C@H]4O)C2=O)cc1` [N11] were greater than 30 µM, greater than 50 µM and “no activity”.
Take `CCc1ccc(/C=C2\SC(=O)N(CC[C@@H]3C[C@H]4C[C@@H]3[C@H](O)[C@@H]4O)C2=O)cc1` [N12]: on Myc:Max interaction, the IC50 is greater than 30 µM. Further, in data set [1], the equilibrium dissociation constant (Kd) is greater than 50 µM. Besides, in the data set with Daudi cells, the “activity of the individual compounds” value was “no activity”. Further, the “effect on Myc:Max complex binding to DNA (gel mobility shift)” value in data set [2] is “Neither of the two monomers, E07 or N12, had any noticeable effect”. Besides, the “effect on Max:Max complex binding to DNA (gel mobility shift)” value in data set [3] is listed as “Neither of the two monomers, E07 or N12, had any noticeable effect”.

B1: E-box oligonucleotide (dsDNA)
DNA 1: GATCAGTTGACCACGTGGTCTGGG
DNA 2: CCCAGACCACGTGGTCAACTGATC
Consider B1, for which, in the data set with Max, the binding result is on record as “binds”.
